Laboratory results as given in patent US20250032625A1, “HETEROBIFUNCTIONAL MOLECULES AS TEAD INHIBITORS” (Merck Patent GmbH, priority 2021, published 2025).
Where two headings read alike, the source gives them in different places.

Columns and labels:
TEAD1 in SK-HEP1 cells = TEAD1 in SK-HEP1 cells (Homo sapiens (Human), UniProt P28347); experiment: TEAD degradation in SK-HEP1 cell line (immunofluorescence); format: cell-based
Protocol: (§1) Degradation of TEAD isoform TEAD1 by exemplary compounds which has been determined at different time points in two different cell lines, SK-HEP1 and NCI-H226: For the assay, SK-HEP1 (ATCC HTB-52) and NCI-H226 (ATCC CRL-5826) cells were treated in duplicates with the test compounds in a 10-point dose, 1:3 dilution steps, with the top concentration starting at 30 uM (final concentration in assay). After either 16 or 24 hour incubation at 37° C., 95% rH, and 5% CO2, the cells were fixed with 4% PFA and TEAD1 levels were probed using immunofluorescence. The primary antibody used was Anti-TEF1 (BD, 610293) and the secondary antibody used was Alexa Fluor® 488 Goat Anti-Mouse IgG (H+L) (Molecular Probes, A-11001). Finally, the cell nuclei were co-stained by Hoechst 33258 (Invitrogen, H-3569) and imaged using a high content imager. The amount of TEAD degradation was determined by quantifying the fluorescence intensity levels of Anti-TEF1 in each individual cell per well. DC50 was calculated using curve fitting software Genedata Screener. Cell media: The SK-HEP1 cells were cultured in the following media: MEM, +10% FCS, +1× GlutaMAX, +100 μM NEAA, +10 mM HEPES, +0.5% Pen/Strep. The NCI-H226 cells were cultured in the following media: RPMI 1640, +10% FBS, +1× GlutaMAX, +10 mM HEPES, +0.5% Pen/Strep.

TEAD1 in NCI-H226 cells = TEAD1 in NCI-H226 cells (Homo sapiens (Human), UniProt P28347); experiment: TEAD degradation in NCI-H226 cell line (immunofluorescence); format: cell-based
Sequence of TEAD1 in NCI-H226 cells (P28347 whole entry): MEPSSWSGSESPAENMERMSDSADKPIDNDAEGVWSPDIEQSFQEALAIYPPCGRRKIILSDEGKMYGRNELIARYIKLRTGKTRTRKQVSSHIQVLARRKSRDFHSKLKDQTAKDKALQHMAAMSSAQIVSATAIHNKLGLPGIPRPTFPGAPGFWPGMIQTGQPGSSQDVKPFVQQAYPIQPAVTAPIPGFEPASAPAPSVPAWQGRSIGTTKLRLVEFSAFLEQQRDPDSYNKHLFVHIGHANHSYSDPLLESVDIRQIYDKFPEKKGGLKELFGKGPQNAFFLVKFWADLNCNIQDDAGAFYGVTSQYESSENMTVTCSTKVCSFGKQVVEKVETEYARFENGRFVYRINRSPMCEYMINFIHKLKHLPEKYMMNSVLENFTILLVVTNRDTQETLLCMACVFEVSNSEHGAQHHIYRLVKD
Protocol: as §1

[1] = 24 hours, ranges, read-out: DC50 SK-HEP1
[2] = 24 hours, ranges, read-out: DC50 NCI-H226

Sequence of TEAD1 in SK-HEP1 cells (P28347 whole entry, canonical isoform): as the sequence (P28347 whole entry) above

| Structure (SMILES) | DC50 (TEAD1 in SK-HEP1 cells; 24 h incubation, read-out: DC50 SK-HEP1 24 h) [nM] | DC50 (TEAD1 in SK-HEP1 cells; [1]) [nM] | DC50 (TEAD1 in NCI-H226 cells; 24 h incubation, read-out: DC50 NCI-H226 24 h) [nM] | DC50 (TEAD1 in NCI-H226 cells; [2]) [nM] |
| --- | --- | --- | --- | --- |
| Cn1cc2c3cc(C(=O)NCCOCCOCCOCCOCCNC(=O)[C@]45CCC(C)(C)C[C@H]4[C@H]4C(=O)C=C6[C@@]7(C)C=C(C#N)C(=O)C(C)(C)[C@@H]7CC[C@@]6(C)[C@]4(C)CC5)ccc3n(-c3ccc(C(F)(F)F)cc3)c2n1 [Compound 33, (4aS,6aR,6bS,8aR,12aS, 14aR, 14bS)-11-cyano-2,2,6a,6b,9,9,12a-heptamethyl-N-[14-({2-methyl-8-[4-(trifluoromethyl)phenyl]-2H,8H-pyrazolo[3,4-b]indol-5-yl}formamido)-3,6,9,12-tetraoxatetradecan-1-yl]-10,14-dioxo-1,2,3,4,4a,5,6,6a,6b,7,8,8a,9,10,12a,14,14a,14b-octadecahydropicene-4a-carboxamide] | 650 | 100 to 1000 | 600 | 100 to 1000 |
| Cc1ncsc1-c1ccc(CNC(=O)[C@@H]2C[C@@H](O)CN2C(=O)[C@@H](NC(=O)CCCCCc2cn(CCCCCCCNC(=O)c3ccc4c(c3)c3cn(C)nc3n4-c3ccc(C(F)(F)F)cc3)nn2)C(C)(C)C)cc1 [Compound 34, (2S,4R)-1-[(2S)-3,3-dimethyl-2-(6-{1-[7-({2-methyl-8-[4-(trifluoromethyl)phenyl]-2H,8H-pyrazolo[3,4-b]indol-5-yl}formamido)heptyl]-1H-1,2,3-triazol-4-yl}hexanamido)butanoyl]-4-hydroxy-N-{[4-(4-methyl-1,3-thiazol-5-yl)phenyl]methyl}pyrrolidine-2-carboxamide] |  | 100 to 1000 |  | 100 to 1000 |
| Cc1ncsc1-c1ccc(CNC(=O)[C@@H]2C[C@@H](O)CN2C(=O)[C@@H](NC(=O)CCCCCc2cn(CCCCCCNC(=O)c3ccc4c(c3)c3cn(C)nc3n4-c3ccc(C(F)(F)F)cc3)nn2)C(C)(C)C)cc1 [Compound 35, (2S,4R)-1-[(2S)-3,3-dimethyl-2-(6-{1-[6-({2-methyl-8-[4-(trifluoromethyl)phenyl]-2H,8H-pyrazolo[3,4-b]indol-5-yl}formamido)hexyl]-1H-1,2,3-triazol-4-yl}hexanamido)butanoyl]-4-hydroxy-N-{[4-(4-methyl-1,3-thiazol-5-yl)phenyl]methyl}pyrrolidine-2-carboxamide] |  | < 100 |  | < 100 |
| Cc1ncsc1-c1ccc(CNC(=O)[C@@H]2C[C@@H](O)CN2C(=O)[C@@H](NC(=O)CCCCCc2cnnn2CCCCCCCNC(=O)c2ccc3c(c2)c2cn(C)nc2n3-c2ccc(C(F)(F)F)cc2)C(C)(C)C)cc1 [Compound 37, (2S,4R)-1-[(2S)-3,3-dimethyl-2-(6-{1-[7-({2-methyl-8-[4-(trifluoromethyl)-phenyl]-2H,8H-pyrazolo[3,4-b]indol-5-yl}formamido)heptyl]-1H-1,2,3-triazol-5-yl}hexanamido)butanoyl]-4-hydroxy-N-{[4-(4-methyl-1,3-thiazol-5-yl)phenyl]methyl}pyrrolidine-2-carboxamide] |  | 100 to 1000 |  | 100 to 1000 |
| Cc1ncsc1-c1ccc([C@H](C)NC(=O)[C@@H]2C[C@@H](O)CN2C(=O)[C@@H](NC(=O)CCCCCc2cnnn2CCCCCCCNC(=O)c2ccc3c(c2)c2cn(C)nc2n3-c2ccc(C(F)(F)F)cc2)C(C)(C)C)cc1 [Compound 38, (2S,4R)-1-[(2S)-3,3-dimethyl-2-(6-{1-[7-({2-methyl-8-[4-(trifluoromethyl)-phenyl]-2H,8H-pyrazolo[3,4-b]indol-5-yl}formamido)heptyl]-1H-1,2,3-triazol-5-yl}hexanamido)butanoyl]-4-hydroxy-N-[(1S)-1-[4-(4-methyl-1,3-thiazol-5-yl)phenyl]ethyl]pyrrolidine-2-carboxamide] |  | 100 to 1000 |  | 100 to 1000 |
| Cc1ncsc1-c1ccc(CNC(=O)[C@@H]2C[C@@H](O)CN2C(=O)[C@@H](NC(=O)COCCOCCOCCNC(=O)c2ccc3c(c2)c2cn(C)nc2n3-c2ccc(C(F)(F)F)cc2)C(C)(C)C)cc1 [Compound 52] |  | 100 to 1000 |  | 100 to 1000 |
| Cc1ncsc1-c1ccc(CNC(=O)[C@@H]2C[C@@H](O)CN2C(=O)[C@@H](NC(=O)CCCCCC(=O)N(C)CCOCCOCCNC(=O)c2ccc3c(c2)c2cn(C)nc2n3-c2ccc(C(F)(F)F)cc2)C(C)(C)C)cc1 [Compound 53, N-[(2S)-1-[(2S,4R)-4-hydroxy-2-({[4-(4-methyl-1,3-thiazol-5-yl)phenyl]-methyl}carbamoyl)pyrrolidin-1-yl]-3,3-dimethyl-1-oxobutan-2-yl]-N′-methyl-N′-(2-{2-[2-({2-methyl-8-[4-(trifluoromethyl)phenyl]-2H,8H-pyrazolo[3,4-b]indol-5-yl}formamido)ethoxy]ethoxy}ethyl) heptanediamide] |  | 100 to 1000 |  | 100 to 1000 |
| Cc1ncsc1-c1ccc(CNC(=O)[C@@H]2C[C@@H](O)CN2C(=O)[C@@H](NC(=O)CCCCCC(=O)NCCOCCOCCNC(=O)c2ccc3c(c2)c2nn(C)nc2n3-c2ccc(C(F)(F)F)cn2)C(C)(C)C)cc1 [Compound 55, N-[(2S)-1-[(2S,4R)-4-hydroxy-2-({[4-(4-methyl-1,3-thiazol-5-yl)phenyl]methyl}carbamoyl)pyrrolidin-1-yl]-3,3-dimethyl-1-oxobutan-2-yl]-N′-(2-{2-[2-({2-methyl-4-[5-(trifluoromethyl)pyridin-2-yl]-2H,4H-[1,2,3]triazolo[4,5-b]indol-7-yl}formamido)ethoxy]ethoxy}ethyl)-heptanediamide] |  | 100 to 1000 |  | 100 to 1000 |
| Cc1ncsc1-c1ccc(CNC(=O)[C@@H]2C[C@@H](O)CN2C(=O)[C@@H](NC(=O)CCCCCCCCCOCCOCCNC(=O)c2ccc3c(c2)c2cn(C)nc2n3-c2ccc(C(F)(F)F)cc2)C(C)(C)C)cc1 [Compound 56] |  | 100 to 1000 |  | 100 to 1000 |

More lines, now with the values ahead:

| DC50 (TEAD1 in SK-HEP1 cells; 24 h incubation, read-out: DC50 SK-HEP1 24 h) [nM] | DC50 (TEAD1 in SK-HEP1 cells; [1]) [nM] | DC50 (TEAD1 in NCI-H226 cells; 24 h incubation, read-out: DC50 NCI-H226 24 h) [nM] | DC50 (TEAD1 in NCI-H226 cells; [2]) [nM] | Structure (SMILES) |
| --- | --- | --- | --- | --- |
|  | < 100 |  | 100 to 1000 | Cn1cc2c3cc(C(=O)NCCOCCOCCOCCOCCNc4ccc5c(c4)C(=O)N(C4CCC(=O)NC4=O)C5=O)ccc3n(-c3ccc(C(F)(F)F)cc3)c2n1 (centres unmarked) [Compound 42, N-(14-{[2-(2,6-dioxopiperidin-3-yl)-1,3-dioxo-2,3-dihydro-1H-isoindol-5-yl]amino}-3,6,9,12-tetraoxatetradecan-1-yl)-2-methyl-8-[4-(trifluoro-methyl)phenyl]-2H,8H-pyrazolo[3,4-b]indole-5-carboxamide] |
|  | 9000 to 30000 |  | 100 to 1000 | Cn1cc2c3cc(C(=O)NCCOCCOCCOCCOCCNc4cccc5c4CN(C4CCC(=O)NC4=O)C5=O)ccc3n(-c3ccc(C(F)(F)F)cc3)c2n1 (centres unmarked) [Compound 43, N-(14-{[2-(2,6-dioxopiperidin-3-yl)-1-oxo-2,3-dihydro-1H-isoindol-4-yl]amino}-3,6,9,12-tetraoxatetradecan-1-yl)-2-methyl-8-[4-(trifluoromethyl)phenyl]-2H,8H-pyrazolo[3,4-b]indole-5-carboxamide] |
|  | 100 to 1000 |  | < 100 | Cn1nc2c3cc(C(=O)NCCOCCOCCOCCOCCNc4cccc5c4C(=O)N(C4CCC(=O)NC4=O)C5=O)ccc3n(-c3ccc(C(F)(F)F)cc3)c2n1 (centres unmarked) [Compound 45, N-(14-{[2-(2,6-dioxopiperidin-3-yl)-1,3-dioxo-2,3-dihydro-1H-isoindol-4-yl]amino}-3,6,9,12-tetraoxatetradecan-1-yl)-2-methyl-4-[4-(trifluoromethyl)phenyl]-2H,4H-[1,2,3]triazolo[4,5-b]indole-7-carboxamide] |
|  | 100 to 1000 |  | 100 to 1000 | Cc1ccc2c(c1)c1cc(C(=O)NCCOCCOCCOCCOCCNc3cccc4c3C(=O)N(C3CCC(=O)NC3=O)C4=O)ccc1n2-c1ccc(C(F)(F)F)cc1 (centres unmarked) [Compound 46, N-(14-{[2-(2,6-dioxopiperidin-3-yl)-1,3-dioxo-2,3-dihydro-1H-isoindol-4-yl]amino}-3,6,9,12-tetraoxatetradecan-1-yl)-6-methyl-9-[4-(trifluoro-methyl)phenyl]-9H-carbazole-3-carboxamide] |
|  | < 100 |  | < 100 | Cn1cc2c3cc(C(=O)NCCOCCOCCOCCOCCOCCNc4cccc5c4C(=O)N(C4CCC(=O)NC4=O)C5=O)ccc3n(-c3ccc(C(F)(F)F)cc3)c2n1 (centres unmarked) [Compound 47, N-(17-{[2-(2,6-dioxopiperidin-3-yl)-1,3-dioxo-2,3-dihydro-1H-isoindol-4-yl]amino}-3,6,9,12,15-pentaoxaheptadecan-1-yl)-2-methyl-8-[4-(trifluoro-methyl)phenyl]-2H,8H-pyrazolo[3,4-b]indole-5-carboxamide] |
|  | 9000 to 30000 |  | < 100 | Cn1cc2c3cc(C(=O)NCCOCCOCCOCCNc4cccc5c4C(=O)N(C4CCC(=O)NC4=O)C5=O)ccc3n(-c3ccc(C(F)(F)F)cc3)c2n1 (centres unmarked) [Compound 50, N-(2-{2-[2-(2-{[2-(2,6-dioxopiperidin-3-yl)-1,3-dioxo-2,3-dihydro-1H-iso-indol-4-yl]amino}ethoxy)ethoxy]ethoxy}ethyl)-2-methyl-8-[4-(trifluoro-methyl)phenyl]-2H,8H-pyrazolo[3,4-b]indole-5-carboxamide] |
